According to patent publication US8614223B2, “Pyrimidine hydroxy amide compounds as protein deacetylase inhibitors and methods of use thereof” (Acetylon Pharmaceuticals, Inc., priority 2010, dated 2013):

Key:
[1] = biological target: HDAC6 (Homo sapiens (Human), UniProt Q9UBN7); settings: read-out: HDAC6 IC50
[2] = biological target: HDAC1 (Homo sapiens (Human), UniProt Q13547); test: HDAC enzyme assay, HDAC1; settings: for HDAC1 fold over HDAC6 IC50 (selectivity for HDAC6): ratio HDAC1/HDAC6; for IC50: read-out: HDAC1 IC50
[3] = biological target: HDAC2 (Homo sapiens (Human), UniProt Q92769); test: HDAC enzyme assay, HDAC2; settings: for HDAC2 fold over HDAC6 IC50 (selectivity for HDAC6): ratio HDAC2/HDAC6; for IC50: read-out: HDAC2 IC50
[4] = biological target: HDAC3 (Homo sapiens (Human), UniProt O15379); test: HDAC enzyme assay, HDAC3; settings: for HDAC3 fold over HDAC6 IC50 (selectivity for HDAC6): ratio HDAC3/HDAC6; for IC50: read-out: HDAC3 IC50
Chain of HDAC3 (O15379 whole entry): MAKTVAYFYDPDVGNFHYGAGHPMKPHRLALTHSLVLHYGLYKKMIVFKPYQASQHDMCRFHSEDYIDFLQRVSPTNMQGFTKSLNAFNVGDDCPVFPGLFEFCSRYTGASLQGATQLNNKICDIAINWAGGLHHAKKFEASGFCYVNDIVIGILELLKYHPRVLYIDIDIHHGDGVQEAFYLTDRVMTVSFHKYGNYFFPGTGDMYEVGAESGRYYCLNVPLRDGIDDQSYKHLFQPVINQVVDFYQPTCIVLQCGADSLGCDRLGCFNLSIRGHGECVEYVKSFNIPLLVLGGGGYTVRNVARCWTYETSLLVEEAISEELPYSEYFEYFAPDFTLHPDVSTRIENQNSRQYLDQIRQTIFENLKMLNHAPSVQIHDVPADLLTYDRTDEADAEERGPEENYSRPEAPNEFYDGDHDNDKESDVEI
Chain of HDAC3 (Q9Y618 395-489 partner): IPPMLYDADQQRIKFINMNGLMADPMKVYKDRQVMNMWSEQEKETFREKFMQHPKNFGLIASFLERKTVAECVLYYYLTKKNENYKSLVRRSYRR

Chain of HDAC6 (Q9UBN7 whole entry): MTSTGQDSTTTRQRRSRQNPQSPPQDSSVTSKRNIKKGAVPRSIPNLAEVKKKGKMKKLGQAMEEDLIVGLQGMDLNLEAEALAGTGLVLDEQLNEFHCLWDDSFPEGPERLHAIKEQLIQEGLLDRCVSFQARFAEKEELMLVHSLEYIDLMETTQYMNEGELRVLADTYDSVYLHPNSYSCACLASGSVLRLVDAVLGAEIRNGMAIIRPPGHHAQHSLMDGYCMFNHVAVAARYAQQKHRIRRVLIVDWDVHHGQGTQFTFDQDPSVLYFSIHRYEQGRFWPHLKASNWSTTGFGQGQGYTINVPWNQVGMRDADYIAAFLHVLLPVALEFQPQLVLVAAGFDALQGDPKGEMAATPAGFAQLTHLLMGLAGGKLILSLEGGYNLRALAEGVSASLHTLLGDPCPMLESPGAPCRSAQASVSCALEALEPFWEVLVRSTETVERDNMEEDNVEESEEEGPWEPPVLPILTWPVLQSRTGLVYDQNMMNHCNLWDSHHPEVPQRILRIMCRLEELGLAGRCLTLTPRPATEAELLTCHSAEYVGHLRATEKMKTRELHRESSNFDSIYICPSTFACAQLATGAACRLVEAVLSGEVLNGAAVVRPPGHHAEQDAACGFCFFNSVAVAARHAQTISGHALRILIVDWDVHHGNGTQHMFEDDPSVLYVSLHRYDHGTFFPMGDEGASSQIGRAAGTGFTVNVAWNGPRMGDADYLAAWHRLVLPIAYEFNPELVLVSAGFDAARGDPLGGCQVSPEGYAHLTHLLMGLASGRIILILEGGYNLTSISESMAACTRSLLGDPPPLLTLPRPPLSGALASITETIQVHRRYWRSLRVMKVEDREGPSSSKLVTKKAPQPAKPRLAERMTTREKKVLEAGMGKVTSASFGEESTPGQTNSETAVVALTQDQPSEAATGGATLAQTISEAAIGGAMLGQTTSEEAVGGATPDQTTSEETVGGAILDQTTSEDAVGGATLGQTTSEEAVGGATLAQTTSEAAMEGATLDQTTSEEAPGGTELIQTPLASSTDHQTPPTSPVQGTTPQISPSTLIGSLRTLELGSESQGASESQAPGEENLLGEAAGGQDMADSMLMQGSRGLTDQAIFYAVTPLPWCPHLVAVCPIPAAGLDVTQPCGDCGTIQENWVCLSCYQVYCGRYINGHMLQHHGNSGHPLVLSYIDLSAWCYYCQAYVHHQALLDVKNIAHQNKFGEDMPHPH
Chain of HDAC1 (Q13547 whole entry): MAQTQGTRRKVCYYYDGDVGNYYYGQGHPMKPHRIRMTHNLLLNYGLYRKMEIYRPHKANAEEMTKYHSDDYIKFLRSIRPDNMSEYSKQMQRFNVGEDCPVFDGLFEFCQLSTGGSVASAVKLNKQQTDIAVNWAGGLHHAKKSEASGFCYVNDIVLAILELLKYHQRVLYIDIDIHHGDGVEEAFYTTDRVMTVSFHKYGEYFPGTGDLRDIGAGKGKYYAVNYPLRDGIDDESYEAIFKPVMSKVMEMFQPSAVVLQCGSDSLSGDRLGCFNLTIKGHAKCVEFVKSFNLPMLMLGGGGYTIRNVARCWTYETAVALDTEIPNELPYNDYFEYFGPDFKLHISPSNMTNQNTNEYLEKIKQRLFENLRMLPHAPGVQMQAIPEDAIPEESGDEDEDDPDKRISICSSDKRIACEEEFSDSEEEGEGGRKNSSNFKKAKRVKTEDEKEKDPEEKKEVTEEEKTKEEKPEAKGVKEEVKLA
Chain of HDAC2 (Q92769 whole entry): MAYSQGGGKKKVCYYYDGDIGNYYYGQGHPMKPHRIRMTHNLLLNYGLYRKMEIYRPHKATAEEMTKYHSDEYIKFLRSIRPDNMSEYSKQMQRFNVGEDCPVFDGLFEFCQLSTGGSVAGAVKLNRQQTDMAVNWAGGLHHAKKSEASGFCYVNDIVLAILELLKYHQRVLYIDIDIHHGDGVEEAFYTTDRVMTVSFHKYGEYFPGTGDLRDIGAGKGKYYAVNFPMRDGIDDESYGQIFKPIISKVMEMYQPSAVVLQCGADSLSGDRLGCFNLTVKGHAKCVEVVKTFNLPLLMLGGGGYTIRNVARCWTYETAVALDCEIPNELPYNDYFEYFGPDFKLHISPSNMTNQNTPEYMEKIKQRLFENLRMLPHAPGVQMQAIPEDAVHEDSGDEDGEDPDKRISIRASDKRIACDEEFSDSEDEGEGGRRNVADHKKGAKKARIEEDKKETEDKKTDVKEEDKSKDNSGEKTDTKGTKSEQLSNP

| Structure (SMILES) | IC50 [1] | HDAC1 fold over HDAC6 IC50 (selectivity for HDAC6) [2] | IC50 [2] | HDAC2 fold over HDAC6 IC50 (selectivity for HDAC6) [3] | IC50 [3] | HDAC3 fold over HDAC6 IC50 (selectivity for HDAC6) [4] | IC50 [4] |
| --- | --- | --- | --- | --- | --- | --- | --- |
| Cc1cc(C(C)(C)Nc2ncc(C(=O)NO)cn2)ccc1F [Compound 78] | 4 nM | (137.3x) | 598 nM | (153.6x) | 669 nM | (304.6x) | 1330 nM |
| CC(Nc1ncc(C(=O)NO)cn1)(c1ccccc1)c1ccccc1 [Compound 79] | 6 nM | (221.6x) | 1270 nM | (319.8x) | 1830 nM | (817.2x) | 4680 nM |
| CC(C)(Nc1ncc(C(=O)NO)cn1)c1ccc(Cl)c(Cl)c1 [Compound 80] | 2 nM | (40.4x) | 85 nM | (60.2x) | 127 nM | (100.3x) | 212 nM |
| O=C(NO)c1cnc(NC2(c3ccc(F)cc3)CC2)nc1 [Compound 81] | 3 nM | (18.3x) | 47 nM | (30.2x) | 78 nM | (46.4x) | 120 nM |
| CC(C)(Nc1ncc(C(=O)NO)cn1)c1ccc(Cl)cc1F [Compound 83] | 3 nM | (139.2x) | 447 nM | (140.9x) | 452 nM | (289x) | 928 nM |
| O=C(NO)c1cnc(NC2(c3ccccc3)CCCCC2)nc1 [Compound 84] | 7 nM | (302.2x) | 2230 nM | (403.4x) | 2970 nM | (613x) | 4520 nM |
| CC(Nc1ncc(C(=O)NO)cn1)c1ccncc1 (centres unmarked) [Compound 85] | 4 nM | (18.1x) | 67 nM | (26.2x) | 96 nM | (36.9x) | 135 nM |
| CC(C)(Nc1ncc(C(=O)NO)cn1)c1ccc(C(F)(F)F)cc1F [Compound 86] | 13 nM | (60.3x) | 788 nM | (98.9x) | 1290 nM | (221.2x) | 2890 nM |
| O=C(NO)c1cnc(NC2(c3ccccc3)CCCC2)nc1 [Compound 88] | 3 nM | (215.2x) | 711 nM | (296.1x) | 978 nM | (679.1x) | 2240 nM |
| O=C(NO)c1cnc(NC(c2ccc(F)cc2)c2ccc(F)cc2)nc1 [Compound 89] | 3 nM | (64.4x) | 223 nM | (78.1x) | 270 nM | (158.8x) | 549 nM |
| O=C(NO)c1cnc(NC2(c3ccccc3Cl)CC2)nc1 [Compound 90] | 1 nM | (19.9x) | 27 nM | (26.2x) | 36 nM | (30.2x) | 41 nM |
| O=C(NO)c1cnc(NC2(c3ccccc3C(F)(F)F)CC2)nc1 [Compound 91] | 2 nM | (72.3x) | 160 nM | (130.2x) | 288 nM | (169.4x) | 374 nM |
| CC(C)(Nc1ncc(C(=O)NO)cn1)c1cc(C(F)(F)F)cc(C(F)(F)F)c1 [Compound 92] | 33 nM | (41.3x) | 1360 nM | (68x) | 2240 nM | (134.4x) | 4420 nM |
| Cc1ccc(C2(Nc3ncc(C(=O)NO)cn3)CC2)cc1 [Compound 93] | 3 nM | (25.9x) | 80 nM | (34.7x) | 107 nM | (51x) | 157 nM |
| O=C(NO)c1cnc(NC2(c3ccccc3)CCOCC2)nc1 [Compound 95] | 3 nM | (176.7x) | 586 nM | (217.7x) | 722 nM | (685x) | 2270 nM |
| CC(Nc1ncc(C(=O)NO)cn1)(c1ccc(F)cc1)c1ccc(F)cc1 [Compound 96] | 9 nM | (271.8x) | 2340 nM | (286.2x) | 2460 nM | (662.8x) | 5710 nM |
| O=C(NO)c1cnc(NC2(c3ccco3)CC2)nc1 [Compound 99] | 4 nM | (47.3x) | 200 nM | (75.6x) | 320 nM | (81.5x) | 345 nM |
| O=C(NO)c1cnc(NC2(c3ccc(F)cc3)CCCCC2)nc1 [Compound 100] | 9 nM | (339.9x) | 3210 nM | (504.7x) | 4760 nM | (1428.4x) | 13500 nM |
| O=C(NO)c1cnc(NC2(c3cccc(F)c3)CCCCC2)nc1 [Compound 101] | 7 nM | (283.5x) | 2120 nM | (343.2x) | 2570 nM | (1498.8x) | 11200 nM |
| O=C(NO)c1cnc(NC2(c3cc4ccccc4s3)CC2)nc1 [Compound 102] | 2 nM | (7.4x) | 13 nM | (11.3x) | 21 nM | (18x) | 33 nM |
| O=C(NO)c1cnc(NC2CCCCC2)nc1 [Compound 103] | 46 nM | (12.6x) | 578 nM | (18.1x) | 832 nM | (23.9x) | 1100 nM |
| O=C(NO)c1cnc(NC2CCOCC2)nc1 [Compound 104] | 49 nM | (16.7x) | 813 nM | (24.1x) | 1170 nM | (24x) | 1170 nM |
| O=C(NO)c1cnc(NCc2cccs2)nc1 [Compound 105] | 4 nM | (54.5x) | 214 nM | (92.1x) | 361 nM | (92x) | 361 nM |
